Measurements: patent US20230416227A1, “PLASMA KALLIKREIN INHIBITORS” (Merck Sharp & Dohme LLC, priority 2020, published 2023)

Molecular target: T1, Human plasma kallikrein (Homo sapiens, UniProt P03952)
T1 construct: yields a heavy chain (371 amino acids) and a light chain (248 amino acids); purchased Enzyme Research Laboratories
Experiment: Plasma Kallikrein Assay
Assay type: biochemical
Settings: purified Human plasma kallikrein 0.5 nM, substrate Acetyl-K-P-R-AFC, pH 7.4

T1 sequence (P03952 391-638 limits assumed): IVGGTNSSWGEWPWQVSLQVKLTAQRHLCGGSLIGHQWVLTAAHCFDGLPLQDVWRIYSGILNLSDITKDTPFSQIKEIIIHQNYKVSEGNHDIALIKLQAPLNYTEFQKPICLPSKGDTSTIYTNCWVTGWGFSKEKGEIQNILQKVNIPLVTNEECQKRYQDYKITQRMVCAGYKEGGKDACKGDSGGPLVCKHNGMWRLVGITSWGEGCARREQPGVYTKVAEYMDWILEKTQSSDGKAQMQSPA
T1 sequence (P03952 20-390 partner limits assumed): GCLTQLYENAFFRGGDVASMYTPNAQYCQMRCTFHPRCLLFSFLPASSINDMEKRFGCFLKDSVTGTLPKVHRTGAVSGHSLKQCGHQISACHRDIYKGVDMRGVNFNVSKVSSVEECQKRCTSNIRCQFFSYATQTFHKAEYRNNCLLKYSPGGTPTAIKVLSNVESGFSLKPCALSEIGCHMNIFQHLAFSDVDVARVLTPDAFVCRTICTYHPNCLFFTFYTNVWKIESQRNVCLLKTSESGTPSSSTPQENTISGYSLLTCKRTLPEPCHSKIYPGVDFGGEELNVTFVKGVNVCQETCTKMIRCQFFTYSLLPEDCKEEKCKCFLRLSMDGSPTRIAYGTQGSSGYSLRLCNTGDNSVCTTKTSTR

SMILES | IC50 [nM]
CN(CCN1CCCC1)c1ccc(Cn2cc(NC(=O)c3cncc(-c4c(C(F)F)ccc(Cl)c4F)n3)cn2)cn1 [Example 114, 6-(3-Chloro-6-(difluoromethyl)-2-fluorophenyl)-N-(1-((6-(methyl(2-(pyrrolidin-1-yl)ethyl)amino)pyridin-3-yl)methyl)-1H-pyrazol-4-yl)pyrazine-2-carboxamide] | 2.7
CC(c1cnc(N2CC[C@H]2CN[C@@H]2CCC[C@H]2O)nc1)n1cc(NC(=O)c2cncc(-c3c(C(F)F)ccc(Cl)c3F)n2)cn1 (stereo partly drawn) [Example 181, 6-(3-Chloro-6-(difluoromethyl)-2-fluorophenyl)-N-(1-(1-(2-((S)-2-((((1R,2R)-2-hydroxycyclopentyl)amino)methyl)azetidin-1-yl)pyrimidin-5-yl)ethyl)-1H-pyrazol-4-yl)pyrazine-2-carboxamide] | 4.2
O=C(Nc1cnn(Cc2ccc(N3CCC4OCCC43)nc2)c1)c1cncc(-c2c(C(F)F)ccc(Cl)c2F)n1 (single isomer, unassigned) [Example 122, 6-(3-Chloro-6-(difluoromethyl)-2-fluorophenyl)-N-(1-((6-((3aR,6aR or 3aS,6aS)-hexahydro-4H-furo[3,2-b]pyrrol-4-yl)pyridin-3-yl)methyl)-1H-pyrazol-4-yl)pyrazine-2-carboxamide] | 19.5
CN(CCO)c1ccc(Cn2cc(NC(=O)c3cncc(-c4c(C(F)F)ccc(Cl)c4F)n3)cn2)cn1 [Example 121, 6-(3-Chloro-6-(difluoromethyl)-2-fluorophenyl)-N-(1-((6-((2-hydroxyethyl)(methyl)amino)pyridin-3-yl)methyl)-1H-pyrazol-4-yl)pyrazine-2-carboxamide] | 18.4
O=C(Nc1cnn(Cc2cnc(N3CC4C(C3)C4(F)F)nc2)c1)c1cncc(-c2c(C(F)F)ccc(Cl)c2F)n1 (centres unmarked) [Example 90, 6-(3-Chloro-6-(difluoromethyl)-2-fluorophenyl)-N-(1-((2-(6,6-difluoro-3-azabicyclo[3.1.0]hexan-3-yl)pyrimidin-5-yl)methyl)-1H-pyrazol-4-yl)pyrazine-2-carboxamide] | 17.8
CCC(=O)C1C2CC2CN1c1ncc(Cn2cc(NC(=O)c3cncc(-c4c(C(F)F)ccc(Cl)c4F)n3)cn2)cn1 (centres unmarked) [Example 91, 6-(3-Chloro-6-(difluoromethyl)-2-fluorophenyl)-N-(1-((2-(2-propionyl-3-azabicyclo[3.1.0]hexan-3-yl)pyrimidin-5-yl)methyl)-1H-pyrazol-4-yl)pyrazine-2-carboxamide] | 17.9
CC(c1cnc(N2CC[C@H]2[C@@H](C)N2C[C@@H](O)[C@H](F)C2)nc1)n1cc(NC(=O)c2cncc(-c3c(C(F)F)ccc(Cl)c3F)n2)cn1 (stereo partly drawn) [Example 189, 6-(3-Chloro-6-(difluoromethyl)-2-fluorophenyl)-N-(1-(1-(2-((S)-2-((R)-1-((3R,4R)-3-fluoro-4-hydroxypyrrolidin-1-yl)ethyl)azetidin-1-yl)pyrimidin-5-yl)ethyl)-1H-pyrazol-4-yl)pyrazine-2-carboxamide] | 1.2
O=C(Nc1cnn(Cc2ccc(N3CCC(CO)C3)nc2)c1)c1cncc(-c2c(C(F)F)ccc(Cl)c2F)n1 (centres unmarked) [Example 132, 6-(3-Chloro-6-(difluoromethyl)-2-fluorophenyl)-N-(1-((6-(3-(hydroxymethyl)pyrrolidin-1-yl)pyridin-3-yl)methyl)-1H-pyrazol-4-yl)pyrazine-2-carboxamide] | 49
CC1C2CC2CN1c1ncc(C(CO)n2cc(NC(=O)c3cncc(-c4c(C(F)F)ccc(Cl)c4F)n3)cn2)cn1 (single isomer, unassigned) [Example 49, 6-(3-Chloro-6-(difluoromethyl)-2-fluorophenyl)-N-(1-((R or S)-2-hydroxy-1-(2-((1S,2R,5R or 1R,2S, 5S)-2-methyl-3-azabicyclo[3.1.0]hexan-3-yl)pyrimidin-5-yl)ethyl)-1H-pyrazol-4-yl)pyrazine-2-carboxamide] | 17.6
O=C(Nc1cnn(Cc2cnc(N3CCC4CC43)nc2)c1)c1cncc(-c2c(C(F)F)ccc(Cl)c2F)n1 (centres unmarked) [Example 108, N-(1-((2-(2-Azabicyclo[3.1.0]hexan-2-yl)pyrimidin-5-yl)methyl)-1H-pyrazol-4-yl)-6-(3-chloro-6-(difluoromethyl)-2-fluorophenyl)pyrazine-2-carboxamide] | 45
CC(c1cnc(N2Cc3ccncc3C2)nc1)n1cc(NC(=O)c2cncc(-c3c(C(F)F)ccc(Cl)c3F)n2)cn1 (centres unmarked) [Example 89, 6-(3-Chloro-6-(difluoromethyl)-2-fluorophenyl)-N-(1-(1-(2-(1,3-dihydro-2H-pyrrolo[3,4-c]pyridin-2-yl)pyrimidin-5-yl)ethyl)-1H-pyrazol-4-yl)pyrazine-2-carboxamide] | 17.3
CC(c1cnc(N2CC[C@H]2CN2CC(F)C2)nc1)n1cc(NC(=O)c2cncc(-c3c(C(F)F)ccc(Cl)c3F)n2)cn1 (stereo partly drawn) [Example 171, 6-(3-Chloro-6-(difluoromethyl)-2-fluorophenyl)-N-(1-(1-(2-((S)-2-((3-fluoroazetidin-1-yl)methyl)azetidin-1-yl)pyrimidin-5-yl)ethyl)-1H-pyrazol-4-yl)pyrazine-2-carboxamide] | 4.9
CC(c1cnc(N2CC[C@H]2CN(C)[C@H]2CCC[C@@H]2O)nc1)n1cc(NC(=O)c2cncc(-c3c(C(F)F)ccc(Cl)c3F)n2)cn1 (stereo partly drawn) [Example 183, 6-(3-Chloro-6-(difluoromethyl)-2-fluorophenyl)-N-(1-(1-(2-((S)-2-((((1S,2S)-2-hydroxycyclopentyl)(methyl)amino)methyl)azetidin-1-yl)pyrimidin-5-yl)ethyl)-1H-pyrazol-4-yl)pyrazine-2-carboxamide] | 4.2
N#Cc1ccc(Cl)c(F)c1-c1cncc(C(=O)Nc2cnn(Cc3cnc(N4CCC4)nc3)c2)n1 [Example 53, N-(1-((2-(Azetidin-1-yl)pyrimidin-5-yl)methyl)-1H-pyrazol-4-yl)-6-(3-chloro-6-cyano-2-fluorophenyl)pyrazine-2-carboxamide] | 30.7
O=C(Nc1cnn(Cc2ccc(N3CCC4OCCC43)nc2)c1)c1cncc(-c2c(C(F)F)ccc(Cl)c2F)n1 (centres unmarked) [Example 117, 6-(3-Chloro-6-(difluoromethyl)-2-fluorophenyl)-N-(1-((6-(hexahydro-4H-furo[3,2-b]pyrrol-4-yl)pyridin-3-yl)methyl)-1H-pyrazol-4-yl)pyrazine-2-carboxamide] | 5.4
O=C(Nc1cnn(Cc2cnc(N3CCCC3CO)nc2)c1)c1cncc(-c2c(C(F)F)ccc(Cl)c2F)n1 (centres unmarked) [Example 113, 6-(3-Chloro-6-(difluoromethyl)-2-fluorophenyl)-N-(1-((2-(2-(hydroxymethyl)pyrrolidin-1-yl)pyrimidin-5-yl)methyl)-1H-pyrazol-4-yl)pyrazine-2-carboxamide] | 65.1
CC(c1cnc(N2CC[C@H]2[C@@H](C)N[C@H](C)C(C)(C)O)nc1)n1cc(NC(=O)c2cncc(-c3c(C(F)F)ccc(Cl)c3F)n2)cn1 (stereo partly drawn) [Example 194, 6-(3-Chloro-6-(difluoromethyl)-2-fluorophenyl)-N-(1-(1-(2-((S)-2-((R)-1-(((R)-3-hydroxy-3-methylbutan-2-yl)amino)ethyl)azetidin-1-yl)pyrimidin-5-yl)ethyl)-1H-pyrazol-4-yl)pyrazine-2-carboxamide] | 21.6
